# Experimental data from US7074807B2, “Compositions and methods for inducing cell death” (Georgetown University, priority 1998, dated 2006).
# What was measured:
# Test in all cases: Annexin V apoptosis in prostate cancer cells (5% BCS)
# Assay type in all cases: cell-based, human
# [1] = test system: DU145 cells; conditions: 2.5 mM, 24 hr
# Description: (§1) Cells were grown overnight in medium containing 10% BCS in T-25 flasks, switched to medium containing 5% BCS and treated with tempo. Following treatment, cells were washed, trypsinized, and resuspended in […] of 1× binding buffer as described before. […] (9A1–9A3): Cytograms of untreated (9A1); 0.1% ethanol-treated (24 hr) (9A2); and tempo-treated DU145 cells (2.5 mM, 24 hr) (9A3). […] (9B1–9B2), (9C1–9C2), (9D1–9D2): apoptosis (9B1, 9C1, 9D1) and necrosis (9B2, 9C2, […]) in cells treated with tempo (B, 2.5 mM; C, 24 hr; D, doses and times as indicated). Values shown are mean q S.D. of triplicate determination per point in each treatment category.
# (§2) To investigate tempo's effect on prostate cancer cells, human androgen-independent prostate cancer-derived cell lines (DU145 and PC3) were grown to near confluence in 75 cm^2-tissue flasks in Improved Minimum Essential Medium (IMEM) (Cellgro) containing 10% bovine calf serum (BCS) supplemented with 2 mM L-glutamine and 200 IU/ml penicillin and streptomycin mixture in a humidified atmosphere of 5% CO2:95% air at 37° C. Human androgen-dependent prostate cancer-derived cell line (LNCaP) was cultured in RPMI 1640 medium containing 10% BCS and 2 mM L-glutamine. Cells were trypsinized and seeded in equal numbers overnight in 150 mm^2 tissue culture dishes (two dishes per flask) or 25 cm^2 flasks (1×10^6 cells per flask). Cells were treated in medium containing 5% BCS with desired concentration of tempo for various times. Tempo was dissolved in ethanol (0.1%) before use. Control cultures were treated with ethanol (0.1%) for various times. Following treatment, cells were washed 3 times with PBS. […] In LNCaP cells, a relatively higher level of apoptosis was observed (1 mM tempo, 24 hr, approximately 12-fold; 5 mM, 4 hr, approximately 15-fold) (FIGS. 9A1, 9A2, 9A3, 9B1, 9B2, 9C1, 9C2, 9D1, 9D2).
# [2] = test system: LNCaP cells
# Description: as §1, §2
# [3] = test system: PC-3 cells; conditions: 2.5 mM, 24 hr
# Description: as §1, §2
smiles,measurement,setting,value
"CC1(C)CCCC(C)(C)N1[O] [tempo, 2,2,6,6-tetramethylpiperidine-N-oxyl]",increase in the number of apoptotic cells,[1],approximately 3.4 fold
same,level of apoptosis (increase),"[2]; 1 mM, 24 hr",approximately 12 fold
same,level of apoptosis (increase),"[2]; 5 mM, 4 hr",approximately 15 fold
same,increase in the number of apoptotic cells,[3],~6.7 fold
